These results are taken from patent publication US20250214960A1, “COMPOUNDS HAVING ACTIVITY OF DEGRADING GSPT1 AND APPLICATION THEREOF” (SHANGHAI MEIZER PHARMACEUTICALS CO., LTD., priority 2021, published 2025).

Format in all cases: cell-based
One assay concerns the target T1, GSPT1 protein (Homo sapiens, UniProt P15170+Q96SW2).
T1 construct: endogenous in cells; host or cells: Jeko-1
Description: Western blot detection of degradation activity of GSPT1 protein in Jeko-1 cells. As to conditions: JeKo-1, 24 h, read-out: GSPT1 degradation rate (%). The method, then: Test Example 1: Western Blot Detection of Degradation Activity of GSPT1 Protein by the Compounds
Cell line: Jeko-1 cell line was cultured with an RPMI1640 media containing 20% fetal bovine serum in an incubator at 37° C., 5% CO2, and saturated humidity.
DMSO control group and test compound (concentration shown in the table below) were set up, after processing for 24 hours, the cells were collected, pre-cooled cell lysate was added and left on ice for 10 minutes. The total protein of the cells was extracted, and the protein concentration was measured and quantified using the BCA method. Routine gel preparation, sample loading, electrophoresis were conducted, then the membrane was transferred, and sealed, wherein the primary antibody was diluted with a blocking solution at 1:500-5000. The membrane was immersed in the diluted primary antibody and incubated overnight at 4° C. After rinsing, the secondary antibody was diluted with a sealing solution at 1:10000-20000, the membrane was immersed in the diluted secondary antibody, and incubated at room temperature for 45 minutes. After rinsing, the results were tested on ODYSSEY (Li-COR). GAPDH was used as an internal reference control.
Image J software was used to perform gray level analysis on each band and the degradation rate of GSPT1 protein by the compounds was calculated.

In a further assay the test system is HL-60 cells. Description: CTG method, inhibition of HL-60 cell proliferation. As to conditions: Homo sapiens; HL-60, 72 hours; read-out: Cellular proliferation inhibition IC50. As to the method:
(§1) Test Example 2: CTG Method for Detecting the Inhibitory Effect of Compounds of Formula on the Proliferation of HNT 34 or HL-60 Cells
(§2) HNT-34 or HL-60 cells were taken and cultured in RPMI1640 medium containing 20% fetal bovine serum. The cells were inoculated on a 96 well plate, with 1×10^4 cells per well, and incubated at 37° C. in a […] incubator. After adding the test compound, it was incubated for 72 hours. Then an appropriate amount of CTG reagent was added, the luminescence value was measured, and the inhibition rate was calculated.

A further assay deals with HNT-34 cells. The assay can be described thus: CTG method, inhibition of HNT-34 cell proliferation. The conditions noted are these: HNT-34, 72 hours; read-out: Cellular proliferation inhibition IC50. The method, then:
as §1, §2

Like-named read-outs stand apart in the source and are kept apart here.

T1 sequence (P15170 whole entry): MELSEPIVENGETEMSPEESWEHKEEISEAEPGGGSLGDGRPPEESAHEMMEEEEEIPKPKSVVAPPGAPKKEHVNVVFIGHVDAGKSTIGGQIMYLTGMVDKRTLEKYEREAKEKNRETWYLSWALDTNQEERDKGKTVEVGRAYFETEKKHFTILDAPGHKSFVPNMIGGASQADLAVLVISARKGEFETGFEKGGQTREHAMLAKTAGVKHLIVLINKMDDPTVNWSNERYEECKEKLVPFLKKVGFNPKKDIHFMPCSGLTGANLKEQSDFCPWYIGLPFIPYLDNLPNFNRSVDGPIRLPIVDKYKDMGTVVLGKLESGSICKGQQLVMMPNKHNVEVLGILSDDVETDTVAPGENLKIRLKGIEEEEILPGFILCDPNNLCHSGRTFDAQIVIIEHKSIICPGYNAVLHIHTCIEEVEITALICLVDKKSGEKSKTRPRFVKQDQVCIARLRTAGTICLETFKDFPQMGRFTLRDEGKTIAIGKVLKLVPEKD
T1 sequence (Q96SW2 whole entry): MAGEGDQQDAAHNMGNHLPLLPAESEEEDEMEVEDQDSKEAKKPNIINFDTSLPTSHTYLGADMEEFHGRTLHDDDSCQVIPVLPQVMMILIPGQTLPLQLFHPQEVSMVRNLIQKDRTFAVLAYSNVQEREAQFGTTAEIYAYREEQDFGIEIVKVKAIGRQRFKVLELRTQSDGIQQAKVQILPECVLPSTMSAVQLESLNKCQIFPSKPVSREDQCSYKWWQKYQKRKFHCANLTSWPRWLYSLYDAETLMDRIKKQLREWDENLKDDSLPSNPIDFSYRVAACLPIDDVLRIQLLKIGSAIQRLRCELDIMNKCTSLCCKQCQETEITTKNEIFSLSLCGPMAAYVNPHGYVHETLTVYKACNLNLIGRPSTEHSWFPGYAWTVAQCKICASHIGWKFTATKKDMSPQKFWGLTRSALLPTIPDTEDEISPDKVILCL
T1 sequence (Q16531 whole entry partner): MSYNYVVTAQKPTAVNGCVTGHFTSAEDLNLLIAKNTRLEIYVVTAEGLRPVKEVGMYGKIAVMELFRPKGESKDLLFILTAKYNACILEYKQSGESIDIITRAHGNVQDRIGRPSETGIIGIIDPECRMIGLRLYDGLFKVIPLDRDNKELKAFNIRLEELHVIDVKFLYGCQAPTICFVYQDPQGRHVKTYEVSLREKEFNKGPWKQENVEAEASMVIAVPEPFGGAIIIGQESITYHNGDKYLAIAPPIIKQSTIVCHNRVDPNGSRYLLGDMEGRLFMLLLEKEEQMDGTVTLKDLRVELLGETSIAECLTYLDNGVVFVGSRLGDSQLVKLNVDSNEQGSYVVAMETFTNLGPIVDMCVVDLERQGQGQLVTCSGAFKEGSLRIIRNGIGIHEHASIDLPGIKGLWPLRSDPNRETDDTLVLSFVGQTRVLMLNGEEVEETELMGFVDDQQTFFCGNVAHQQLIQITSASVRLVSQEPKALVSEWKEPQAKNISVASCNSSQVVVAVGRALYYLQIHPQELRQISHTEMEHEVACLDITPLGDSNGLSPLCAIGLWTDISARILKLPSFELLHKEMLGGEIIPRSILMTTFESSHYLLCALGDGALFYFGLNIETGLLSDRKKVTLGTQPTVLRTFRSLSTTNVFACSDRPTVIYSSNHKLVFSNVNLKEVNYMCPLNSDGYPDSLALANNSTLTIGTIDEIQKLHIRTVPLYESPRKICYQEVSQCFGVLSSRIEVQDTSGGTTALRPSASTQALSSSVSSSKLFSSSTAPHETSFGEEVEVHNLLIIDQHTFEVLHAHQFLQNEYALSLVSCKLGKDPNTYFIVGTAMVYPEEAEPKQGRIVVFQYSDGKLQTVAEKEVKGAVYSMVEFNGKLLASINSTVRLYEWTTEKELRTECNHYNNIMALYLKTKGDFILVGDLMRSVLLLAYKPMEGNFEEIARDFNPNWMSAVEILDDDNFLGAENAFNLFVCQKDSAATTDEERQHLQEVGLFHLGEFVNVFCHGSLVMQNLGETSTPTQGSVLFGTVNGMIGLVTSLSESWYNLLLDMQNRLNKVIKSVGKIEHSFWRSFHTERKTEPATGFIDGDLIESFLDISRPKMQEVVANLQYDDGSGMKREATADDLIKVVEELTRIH

As for `CCN(C(=O)OC(C)(C)C)[C@H](C(=O)NCc1ccc2c(c1)CN(C1CCC(=O)NC1=O)C2=O)c1ccccc1` (stereo partly drawn) [Compound 1-89, Tert butyl ((1S)-2-((2-(2,6-dioxypiperidin-3-yl)-1-oxoisoindoline-5-yl)methyl)amino)-2-oxo-1-phenylethy 1) (ethyl) carbamate], the inhibition at 0.1 µM on GSPT1 protein (100 nM, Jeko-1 cells, 24 hours) was found to be 97.8%. The inhibition at 10 µM on GSPT1 protein (10 μM, Jeko-1 cells, 24 hours) turned out to be 98.7%. Moreover, the results for the IC50 in the assay on HL-60 cells and in the assay with HNT-34 cells were 5 nM and 3.8 nM, respectively.
For the molecule `CC(C)C[C@@H](NC(=O)OC(C)(C)C)C(=O)NCc1ccc2c(c1)CN(C1CCC(=O)NC1=O)C2=O` (stereo partly drawn) [Compound 4-123, Tert butyl ((2R)-1-((2-(2,6-dioxypiperidin-3-yl)-1-oxoidoline-5-yl)methyl)amino)-4-methyl-1-oxolan-2-yl) carbamate], the inhibition at 0.1 µM at GSPT1 protein (100 nM, Jeko-1 cells, 24 hours) was 79.9%. Besides, the inhibition at 10 µM on GSPT1 protein (10 μM, Jeko-1 cells, 24 hours) is 92.7%. Moreover, the results for the IC50 in the assay with HL-60 cells and in the assay with HNT-34 cells were 28.9 nM and 26.9 nM, respectively.
The like results for `CC(C)(C)OC(=O)N[C@H](C(=O)NCc1ccc2c(c1)CN(C1CCC(=O)NC1=O)C2=O)c1ccc2ccccc2c1` (stereo partly drawn) [Compound 4-133, tert butyl ((1S)-2-((2-(2,6-dioxypiperidin-3-yl)-1-oxoisoidoline-5-yl)methyl)amino)-1-(naphthalene-2-yl)-2-oxoethyl) carbamate] were, in that order, 79%, 86%, 14.3 nM and 3.2 nM.
The like results for `CN(C(=O)OC(C)(C)C)[C@H](C(=O)NCc1ccc2c(c1)CN(C1CCC(=O)NC1=O)C2=O)c1ccccc1` (stereo partly drawn) [Compound 4-135, Tert butyl ((1S)-2-((2-(2,6-dioxypiperidin-3-yl)-1-oxoisoindoline-5-yl)methyl)amino)-2-oxo-1-phenylethy 1) (methyl) carbamate] were, in that order, 80%, 93%, 14.3 nM and 6.2 nM.
Consider `CC(C)(C)OC(=O)N[C@H](C(=O)NCc1ccc2c(c1)CN(C1CCC(=O)NC1=O)C2=O)c1ccc(F)cc1` (stereo partly drawn) [Compound 4-136, Tert butyl ((1S)-2-((2-(2,6-dioxypiperidin-3-yl)-1-oxoisoidoline-5-yl)methyl)amino)-1-(4-fluorophenyl)-2-oxoethyl) carbamate], for which the inhibition at 0.1 µM at GSPT1 protein (100 nM, Jeko-1 cells, 24 hours) was 82%. Besides, at GSPT1 protein (10 μM, Jeko-1 cells, 24 hours), the inhibition at 10 µM was 97%. Besides, in the assay with HNT-34 cells, the IC50 came to 3.6 nM.
On to `CC(C)(C)OC(=O)N[C@H](C(=O)NCc1ccc2c(c1)CN([C@H]1CCC(=O)NC1=O)C2=O)c1ccccc1Cl` [Compound 5-17b, Tert butyl ((1S)-1-(2-chlorophenyl)-2-((2-((S)-2,6-dioxopyridin-3-yl)-1-oxoisoidoline-5-yl)methyl)amino)-2-oxoethyl) carbamate], for which the inhibition at 0.01 µM at GSPT1 protein (10 nM, Jeko-1 cells, 24 hours) was 57%. Besides, the inhibition at 1 µM at GSPT1 protein (1 μM, Jeko-1 cells, 24 hours) stood at 100%. Also, in the assay on HL-60 cells, the IC50 came to 4.6 nM.
Turning to `CC(C)(C)OC(=O)NCC(C(=O)NCc1ccc2c(c1)CN(C1CCC(=O)NC1=O)C2=O)C1CCCCC1` (stereo not shown) [Compound 5-55, Tert butyl (2-cyclohexyl-3-((2-(2,6-dioxypiperidin-3-yl)-1-oxoisoindoline-5-yl)methyl)amino)-3-oxopropyl) carbamate], the inhibition at 0.1 µM on GSPT1 protein (100 nM, Jeko-1 cells, 24 hours) is 85.1%. For the same molecule, the inhibition at 10 µM at GSPT1 protein (10 μM, Jeko-1 cells, 24 hours) is 93.9%.
On the same counts, the results for `O=C1CCC(N2Cc3cc(CNC(=O)C(CNC(=O)C4CCCC4)C4CCCCC4)ccc3C2=O)C(=O)N1` (stereo not shown) [Compound 5-59] are 36% and 93.7%.
Turning to `CN(C(=O)OC(C)(C)C)C(C(=O)NCc1ccc2c(c1)CN(C1CCC(=O)NC1=O)C2=O)c1ccc(Cl)c(Cl)c1` (stereo not shown) [Compound 5-76, Tert butyl (1-(3,4-dichlorophenyl)-2-((2-(2,6-dioxopyridin-3-yl)-1-oxoisoidoline-5-yl)methyl)amino)-2-oxoethyl (methyl) carbamate], at GSPT1 protein (100 nM, Jeko-1 cells, 24 hours), the inhibition at 0.1 µM is 65.2%. In addition, at GSPT1 protein (10 μM, Jeko-1 cells, 24 hours), the inhibition at 10 µM turned out to be 84.6%.
Consider `CC(C)(C)OC(=O)O[C@H](C(=O)NCc1ccc2c(c1)CN(C1CCC(=O)NC1=O)C2=O)c1ccccc1` (stereo partly drawn) [Compound 5-82, Tert butyl ((1S)-2-((2-(2,6-dioxypiperidin-3-yl)-1-oxoisoindoline-5-yl)methyl)amino)-2-oxo-1-phenylethy 1) carbonate], for which the inhibition at 0.1 µM at GSPT1 protein (100 nM, Jeko-1 cells, 24 hours) is 29.8%. Besides, at GSPT1 protein (10 μM, Jeko-1 cells, 24 hours), the inhibition at 10 µM came to 74.8%.
On the same counts, the results for `CC(C)(C)OC(=O)N[C@H](Cc1ccccc1Cl)C(=O)NCc1ccc2c(c1)CN(C1CCC(=O)NC1=O)C2=O` (stereo partly drawn) [Compound 5-83, Tert butyl ((2R)-3-(2-chlorophenyl)-1-((2-(2,6-dioxopyridin-3-yl)-1-oxoisoidoline-5-yl)methyl)amino)-1-oxopropan-2-yl) carbamate] are 96.2% and 95.5%.
For the molecule `CC(C)C[C@H](NC(=O)OC(C)(C)C)C(=O)NCc1ccc2c(c1)CN(C1CCC(=O)NC1=O)C2=O` (stereo partly drawn) [Compound 5-84, Tert butyl ((2S)-1-((2-(2,6-dioxypiperidin-3-yl)-1-oxoisoidoline-5-yl)methyl)amino)-4-methyl-1-oxapent-2-yl) carbamate], the inhibition at 0.1 µM on GSPT1 protein (100 nM, Jeko-1 cells, 24 hours) is 52.7%. Besides, the inhibition at 10 µM at GSPT1 protein (10 μM, Jeko-1 cells, 24 hours) was determined as 82.7%.
As for `O=C1CCC(N2Cc3cc(CNC(=O)[C@H](CC4CCCCC4)NC(=O)OC4CCCC4)ccc3C2=O)C(=O)N1` (stereo partly drawn) [Compound 5-93, Cyclopentyl ((2S)-3-cyclohexyl-1-((2-(2,6-dioxopyridin-3-yl)-1-oxoisoidoline-5-yl)methyl)amino)-1-oxopropan-2-yl) carbamate], on GSPT1 protein, the inhibition at 0.1 µM is 99% and the inhibition at 10 µM was found to be 100%.
Regarding `O=C1CCC(N2Cc3cc(CNC(=O)[C@@H](CNC(=O)C4CCCC4)c4ccccc4)ccc3C2=O)C(=O)N1` (stereo partly shown) [Compound 5-95], the inhibition at 0.1 µM on GSPT1 protein (100 nM, Jeko-1 cells, 24 hours) was 16%. The inhibition at 10 µM at GSPT1 protein (10 μM, Jeko-1 cells, 24 hours) was found to be 70%.
The like results for `CC(C)(C)OC(=O)NC(CC(=O)NCc1ccc2c(c1)CN(C1CCC(=O)NC1=O)C2=O)C1CCCC1` (stereo not shown) [Compound 5-99, Tert butyl (1-cyclopentyl-3-((2-(2,6-dioxypiperidin-3-yl)-1-oxoisoindoline-5-yl)methyl)amino)-3-oxopropyl) carbamate] were, in that order, 98% and 99%.
Turning to `O=C1CCC(N2Cc3cc(CNC(=O)[C@@H](NC(=O)OC4CCOC4)c4ccccc4)ccc3C2=O)C(=O)N1` (stereo partly drawn) [Compound 6-01, ((1S)-2-(((2-(2,6-dioxopyridin-3-yl)-1-oxoisoindoline-5-yl)methyl)amino)-2-oxo-1-phenylethyl) carbamate-β-Oxocyclopentanol Ester], on GSPT1 protein, the inhibition at 0.01 µM stood at 10% and the inhibition at 1 µM was 68%.
On the same counts, the results for `O=C1CCC(N2Cc3cc(CNC(=O)[C@@H](NC(=O)OC4CCCCC4)c4ccccc4)ccc3C2=O)C(=O)N1` (stereo partly drawn) [Compound 6-02, ((1S)-2-(((2-(2,6-dioxypiperidin-3-yl)-1-oxoisoindoline-5-yl)methyl)amino)-2-oxo-1-phenylethyl) carbamate Cyclohexanol Ester] are 95% and 96%.
As to `O=C1CCC(N2Cc3cc(CNC(=O)[C@@H](NC(=O)OC4CCOCC4)c4ccccc4)ccc3C2=O)C(=O)N1` (stereo partly drawn) [Compound 6-03, ((1S)-2-(((2-(2,6-dioxopyridin-3-yl)-1-oxoisoindoline-5-yl)methyl)amino)-2-oxo-1-phenylethyl) carbamate-γ-Oxyhexanol Ester], at GSPT1 protein, the inhibition at 0.01 µM stood at 28% and the inhibition at 1 µM worked out at 90%.
